From patent US6596741B2, “Biaryl ether derivatives useful as monoamine reuptake inhibitors” (Pfizer Inc, priority 1999, dated 2003)
Where a name gives a salt, the structure may show the parent alone.

SMILES	melting point
CNCc1ccc(-c2ccccc2)cc1Oc1ccc(Cl)c(Cl)c1 (as salt: HCl) [Example 2, [3-(3,4-Dichlorophenoxy)-biphenyl-4-ylmethyl]-methylamine]	186 to 194 °C
CNCc1cc(-c2ccc(C)cc2)ccc1Oc1ccc(Cl)c(Cl)c1 (as salt: HCl) (hydrate or solvate) [Example 3, [4-(3,4-Dichlorophenoxy)-4′-methyl-biphenyl-3-ylmethyl]-methylamine]	208 to 210 °C
CNC(C)c1cc(N2CCCC2=O)ccc1Oc1ccc(Cl)c(Cl)c1.Cl (stereo not shown)	195 to 200 °C
CNCc1cc(-c2ccncc2)ccc1Oc1ccc(Cl)c(Cl)c1 (as salt: HCl) (hydrate or solvate) [Example 14, [2-(3,4-Dichlorophenoxy)-5-pyridin-4-ylbenzyl]-methylamine]	179 to 181 °C
CNCc1cc(N2CCCC2=O)ccc1Oc1ccc(Cl)c(Cl)c1 (as salt: HCl) [Example 19, 1-[4-(3,4-Dichlorophenoxy)-3-(methylaminomethyl)phenyl]-pyrrolidin-2-one]	166 to 170 °C
CNCc1ccc(-c2ccsc2)cc1Oc1ccc(Cl)c(Cl)c1 (as salt: HCl) (hydrate or solvate) [Example 9, [2-(3,4-Dichlorophenoxy)-4-thiophen-3-ylbenzyl]-methylamine]	181 to 184 °C
CNCc1ccc(-c2cccs2)cc1Oc1ccc(Cl)c(Cl)c1 (as salt: HCl) [Example 11, [2-(3,4-Dichlorophenoxy)-4-thiophen-2-ylbenzyl]-methylamine]	180 to 183 °C
CNCc1cc(-n2ccc(N)n2)ccc1Oc1ccc(Cl)c(Cl)c1.Cl.Cl	225 to 233 °C

Now from value to molecule:

melting point	SMILES
207 to 209 °C	CNCc1cc(-c2cccs2)ccc1Oc1ccc(Cl)c(Cl)c1 (as salt: HCl) [Example 10, [2-(3,4-Dichlorophenoxy)-5-thiophen-2-ylbenzyl]-methylamine]
188 to 191 °C	CNCc1cc(-c2ccco2)ccc1Oc1ccc(Cl)c(Cl)c1 (as salt: HCl) (hydrate or solvate) [Example 6, [2-(3,4-Dichlorophenoxy)-5-furan-2-ylbenzyl]-methylamine]
129 to 134 °C	CNCc1ccc(-c2ccco2)cc1Oc1ccc(Cl)c(Cl)c1 (hydrate or solvate) [Example 7, [2-(3,4-Dichlorophenoxy)-4-furan-2-ylbenzyl]-methylamine]
168 to 171 °C	CNCc1cc(-c2cccnc2)ccc1Oc1ccc(Cl)c(Cl)c1 (as salt: HCl) [Example 13, [2-(3,4-Dichlorophenoxy)-5-pyridin-3-ylbenzyl]-methylamine]
169 to 172 °C	CNCc1cc(-c2ccsc2)ccc1Oc1ccc(Cl)c(Cl)c1 (as salt: HCl) [Example 8, [2-(3,4-Dichlorophenoxy)-5-thiophen-3-ylbenzyl]-methylamine]
